Measured values as given in US20060194800A1, “Pteridine derivatives as nitric oxide synthase activators” (University of Strathclyde, priority 2005, published 2006).

Experiments:
eNOS [1] = molecular target: T1, eNOS (Sus scrofa, UniProt Q28969); assay: Endothelial cell assay, nitric oxide (NO2+NO3) production; assay type: cell-based, porcine; conditions: 30 μM in DMSO, seven days, DAHP-depleted endothelial cells
T1 construct: endothelial cells that produce eNOS; endogenous in cells; host or cells: primary porcine pulmonary artery endothelial cells
T1 sequence (Q28969 2-1205 limits assumed): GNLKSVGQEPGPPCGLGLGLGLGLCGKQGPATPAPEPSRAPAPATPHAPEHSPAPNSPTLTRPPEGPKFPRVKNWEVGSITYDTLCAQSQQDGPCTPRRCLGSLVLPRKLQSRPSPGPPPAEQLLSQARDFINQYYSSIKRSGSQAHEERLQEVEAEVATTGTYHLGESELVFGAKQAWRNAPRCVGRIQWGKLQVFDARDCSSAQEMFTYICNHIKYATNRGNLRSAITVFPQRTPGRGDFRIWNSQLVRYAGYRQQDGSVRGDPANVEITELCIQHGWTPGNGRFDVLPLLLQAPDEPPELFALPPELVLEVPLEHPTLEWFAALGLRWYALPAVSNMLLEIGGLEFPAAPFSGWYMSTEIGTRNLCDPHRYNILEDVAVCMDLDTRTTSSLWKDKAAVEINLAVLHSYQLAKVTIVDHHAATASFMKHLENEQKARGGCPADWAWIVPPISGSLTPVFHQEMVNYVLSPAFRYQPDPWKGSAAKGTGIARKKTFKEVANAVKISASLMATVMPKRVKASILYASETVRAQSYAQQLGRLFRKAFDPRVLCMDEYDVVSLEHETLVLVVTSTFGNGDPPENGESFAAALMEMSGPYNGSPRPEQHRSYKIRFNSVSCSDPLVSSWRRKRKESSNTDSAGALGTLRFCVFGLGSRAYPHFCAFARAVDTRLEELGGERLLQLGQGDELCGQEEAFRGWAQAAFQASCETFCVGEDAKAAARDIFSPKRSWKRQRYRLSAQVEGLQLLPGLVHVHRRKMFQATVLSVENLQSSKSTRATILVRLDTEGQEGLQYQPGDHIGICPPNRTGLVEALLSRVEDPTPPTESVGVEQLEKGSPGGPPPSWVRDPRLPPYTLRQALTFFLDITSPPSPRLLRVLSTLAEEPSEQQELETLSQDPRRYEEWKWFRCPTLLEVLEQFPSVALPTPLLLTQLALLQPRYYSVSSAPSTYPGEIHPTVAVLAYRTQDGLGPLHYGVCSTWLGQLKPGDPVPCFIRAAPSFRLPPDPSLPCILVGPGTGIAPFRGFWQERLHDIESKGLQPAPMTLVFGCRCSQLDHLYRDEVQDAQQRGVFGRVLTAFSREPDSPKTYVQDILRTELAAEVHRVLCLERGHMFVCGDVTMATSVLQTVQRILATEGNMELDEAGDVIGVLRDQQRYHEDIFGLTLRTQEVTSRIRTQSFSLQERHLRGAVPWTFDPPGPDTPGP
Description: The arterial assay is sensitive but slow to perform, and therefore a wider range of compounds was investigated in whole cell preparations. Tests have been carried out using endothelial cells that produce eNOS and stimulated macrophages that produce iNOS. Endothelial cells were isolated from porcine pulmonary artery and grown to confluency in T75 flasks. Subsequently, the cells were seeded into 6-well plates. At confluency, the medium (1 ml/well) was changed and the relevant treatment introduced to all wells in each plate (one treatment/plate). The cells were incubated for a further 7-day period and the experiment was terminated. The media from the wells of respective plates was combined (˜6 mls) and evaporated to approximately 500 μl (˜10-fold). A 50 μl aliquot was removed and any NO3 was converted to NO2 using the NO3 conversion method (Calbiochem Cat No 482702). These treated samples were then assayed using the Greiss reaction as described above giving the content of the combination of (NO2+NO3). WSG1002, as a representative compound, was incubated with a preparation of endothelial cells over seven days in order to accumulate sufficient nitric oxide for assay as described above. Controls included vehicle (0.5% DMSO) and L-NAME (an established NOS inhibitor). WSG1002 caused a doubling of nitric oxide compared with vehicle control.

eNOS [2] = assay: eNOS immunostaining in endothelium of small pulmonary arteries of treated rats; assay type: in vivo, rat; conditions: 14.1 mg/kg/day s.c.
Description: Rats were maintained in a chamber containing atmospheric air at 550 mbar for 14 days. […] A group of normotensive and a group of pulmonary hypertensive rats received daily subcutaneous injections of WSG1002 in a dose of 14.1 mg/kg/day during the time that they were in the hypoxic chamber. Other groups of normotensive and pulmonary hypertensive rats had no drugs and are used as control comparison groups. These studies used lungs from the four groups of rats (1) pulmonary hypertensive and treated with WSG1002, (2) normotensive and treated with WSG1002, (3) pulmonary hypertensive and not treated with WSG1002 (4) normotensive and not treated with WSG1002. The rat lungs were fixed with 4% formaldehyde, wax embedded, and 3 μm thick sections were cut. The sections were mounted on silanated slides, rehydrated and treated with 0.3% H2O2 to block endogenous peroxidase activity. Antigens were unmasked by treatment in a microwave oven. […] In the endothelium, the intensity of staining was quantified on a scale of 0-3, where 0=no staining or the same as the negative control, 1=faint staining or staining in a few target cells, 2=moderate staining in most target cells, 3=the maximum staining observed with that antibody in the positive control slides.

**Q.** With `CC(=O)C1=Nc2c(nc(N)[nH]c2=O)NC1(C)C` [wsg1002, 6-Acetyl-2-amino-7,7-dimethyl-7,8-dihydro-3H-pteridin-4-one] as the molecule, how does the “nitric oxide production compared with vehicle control” value (eNOS [1]) read?
**A.** doubling

**Q.** What about the “eNOS staining in small pulmonary artery endothelium” value (eNOS [2]; normotensive rats) of the same molecule?
**A.** increased staining for eNOS

**Q.** And the “eNOS staining in small pulmonary artery endothelium” value (eNOS [2]; pulmonary hypertensive rats vs treated normotensive)?
**A.** no further increase
